Experimental data: patent US6306613A, “Modulators of leaderless protein export and methods for identifying and using the same” (Ciblex Corporation, priority 1999, dated 2001)

What was measured:
[1] = tested on: export of FGF-2 mutein Lys144Val (K144V) from COS cells; test: FGF-2 mutein export with ouabain, Lys144Val; assay type: cell-based
[2] = tested on: export of FGF-2 mutein Arg53Trp (R53W) from COS cells; test: FGF-2 mutein export with ouabain, Arg53Trp; assay type: cell-based
[3] = tested on: export of F-gal (FGF-2 β-gal chimeric protein) from COS cells; test: Export of F-gal chimera from COS cells; assay type: cell-based
[4] = tested on: FGF-2 export from Na+/K+ ATPase α1 co-transfected COS cells; test: FGF-2 export from COS cells co-transfected with rat Na+/K+ ATPase α1; assay type: cell-based; conditions: twenty-four hours post labeling
[5] = tested on: export of FGF-2 mutein Cys78Ser + Cys96Ser (C78,96S) from COS cells; test: FGF-2 mutein export with ouabain, Cys78Ser + Cys96Ser; assay type: cell-based
[6] = tested on: export of FPT (FGF-2 neomycin phosphotransferase chimeric protein) from COS cells; test: Export of FPT chimera from COS cells; assay type: cell-based
[7] = tested on: export of FGF-2 mutein Lys134Thr (K134T) from COS cells; test: FGF-2 mutein export with ouabain, Lys134Thr; assay type: cell-based
[8] = tested on: export of 18 kD FGF-2 from COS cells; test: FGF-2 export from transfected COS cells, pulse-chase and immunoprecipitation; assay type: cell-based; conditions: for inhibition of export of FGF-2 / IC50: COS cells; for inhibition of export of FGF-2: 10 nM to 1 mM in chase; for IC50: FGF-2 export, modulator in chase medium, read-out: concentration that inhibits 50% of leaderless protein export
Description: For an immunoprecipitation assay after transfection, the COS cells are metabolically pulse-labeled for 15 minutes with 100 μCi of ^35 S-methionine and ^35 S-cysteine (Trans ^35 S-label, ICN Biomedicals, Irvine, Calif.) in 1 ml of methionine and cysteine free DMEM. Following labeling, the cell monolayers are washed once with DMEM supplemented with excess (10 mM) unlabeled methionine and cysteine for 1-2 minutes. Cells are then cultured in 2 ml of this medium for the indicated lengths of time and the cell supernatants are immunoprecipitated for the presence of leaderless protein. For the indicated cultures, chase medium is supplemented with modulator at the indicated concentrations.
COS cells are cultured in Dulbecco's Modified Eagle Medium (DMEM, University of California San Diego Core Facility) supplemented with 10% fetal bovine serum (Gemini Bioproducts, Inc.), 2 mM L-glutamine, 1 mM sodium pyruvate, 0.1 mM non-essential amino acids, 100 units/ml penicillin, and 100 units/ml streptomycin. An SV-40-based expression vector containing the wild type (human) cDNA encoding multiple FGF-2 isoforms (24, 23, 22 and 18-kD) has been described previously (Florkiewiczand Sommer, supra). Approximately 3×10^5 COS cells in a 60 mm tissue culture dish are transfected with 10 μg of CsCl-purified plasmid DNA mixed with 1.0 ml of transfection buffer (140 mM NaCl, 3 mM KCl, 1 mM CaC'2, 0.5 mM MgCl2, 0.9 mM Na2 HPO4, 25 mM Tris pH 7.4; all from Sigma Chemical Company, Stl. Louis, Mo.). Under these co-transfection conditions using 2 μg of p18dx plus 10 μg pMAMneo, greater than 70% of transfected cells express both proteins, as determined by immunofluorescence microscopy. The ratio of plasmid DNA may be varied with an insignificant change in results. Forty to 48 hours post-DNA transfection COS cells are metabolically pulse-labeled for 15 minutes with 100 μCi of ^35 S-methionine and ^35 S-cysteine (Trans^35 S-label, ICN Biomedicals, Inc.) in 1.0 ml of methionine-and cysteine-free DMEM. After pulse-labeling, the cell monolayers are washed once with DMEM supplemented with excess (10 mM) unlabeled methionine and cysteine (Sigma Chemical Company) and then cultured in 1.0 ml of the same medium (chase) for the indicated lengths of time. Cultures treated with brefeldin A include 15 μg/ml of brefeldin A in the chase medium. Chase medium is also supplemented with 25 μg/ml heparin (Sigma Chemical Company). Although heparin is not necessary to qualitatively detect FGF-2 export, it is necessary in order to quantitatively detect the export of FGF-2 in this assay.
Cell and medium fractions are prepared for immunoprecipitation essentially as described previously (Florkiewicz et al., 1991) except that 400 μl of lysis buffer without NaCl (1% NP-40, 0.5% deoxycholate, 20 mM Tris pH 7.5, 5 mM EDTA, 2 mM EGTA, 0.01 mM phenylinethylsufonyl fluoride, 10 ng/ml aprotiniul, 10 ng/ml leupeptin, and 10 ng/ml pepstatin) is added to the medium fraction clarified by microfuge centrifugation for 15 minutes at 4° C. before adding immune serum. Both cell and medium fractions are incubated with a 1:200 dilution of guinea pig anti-FGF-2 immune serum (prepared in our laboratory) at 21° C. for 40 minutes and then GammaBind G Sepharose® (Pharmacia LKB Biotechnology) is added for an additional 30 minute incubation. […]

[9] = tested on: IL-1α export from COS cells; test: IL-1α export from transfected COS cells; assay type: cell-based; conditions: 5 mM
From the text: A vector containing a leaderless protein gene. IL-1α, is transfected into COS cells. Cells are metabolically labeled and protein precipitated with anti-IL-1α antibody. […] In contrast to the export of FGF-2, the rate of IL-1 export is slower, having a T1/2 of greater than 24 hrs. […] In addition, IL-1α can be immunoprecipitated from co-transfected COS cells (transfected with IL-1α and the Na/K ATPase α1 subunit) using anti-α1 subunit antibody (FIG. 4).

[10] = tested on: secretion of hCG-α from COS cells; test: hCG-α secretion from transfected COS cells (leader sequence control); assay type: cell-based
Description: An expression vector encoding hCG-cc (Guan et al., J. Biol. Chem. 263:5306-5313, 1988), which has a signal sequence, is used as a control to monitor proteins trafficked through the ER/Golgi.
COS cells are co-transfected as described above with plasmids expressing FGF-2, hCG-α, or neomycin phosphotransferase. Metabolic labeling is performed as described above, except that during the chase period, modulator that inhibits export is added at 10 nM to 1 mM in log increments. At the end of the chase, cells and cell media are harvested and processed for immune precipitations as described above.

[11] = tested on: VSV N protein export from COS cells; assay type: cell-based
[12] = tested on: export of FGF-2 mutein Arg118Ile from COS cells; test: FGF-2 mutein export with ouabain, Arg118Ile; assay type: cell-based
[13] = tested on: export of 18 kD FGF-2 from COS cells; conditions: 25 μg/ml in chase medium; cited from earlier work
[14] = tested on: secretion of hCG-α from COS cells; conditions: cited from earlier work

C[C@@H]1O[C@@H](O[C@H]2C[C@@H](O)[C@]3(CO)[C@H]4[C@H](O)C[C@]5(C)[C@@H](C6=CC(=O)OC6)CC[C@]5(O)[C@@H]4CC[C@]3(O)C2)[C@H](O)[C@H](O)[C@H]1O [Ouabain]
FGF-2 in Cells, 7 hr (+) Ouabain ([1]; K144V): 70% | FGF-2 in Media, 7 hr (+) Ouabain ([1]; K144V): 30% | Effect of Ouabain on Export ([1]; Lys144Val): decrease | Effect of Ouabain on Export ([2]; Arg53Trp): decrease | FGF-2 in Cells, 7 hr (+) Ouabain ([2]; R53W): 70% | FGF-2 in Media, 7 hr (+) Ouabain ([2]; R53W): 30% | inhibition of export of F-gal [3]: can be inhibited | FGF-2 in media at 1 mM [4]: significant amounts of FGF-2 can be detected in media | FGF-2 in Cells, 7 hr (+) Ouabain ([5]; C78,96S): 62% | FGF-2 in Media, 7 hr (+) Ouabain ([5]; C78,96S): 38% | Effect of Ouabain on Export ([5]; Cys78Ser + Cys96Ser): decrease | inhibition of export of FPT [6]: can be inhibited | FGF-2 in Cells, 7 hr (+) Ouabain [7]: 70% | FGF-2 in Media, 7 hr (+) Ouabain [7]: 30% | inhibition of FGF-2 export at 1 mM ([8]; 1 mM, FGF-2 only transfected COS cells): completely inhibit | inhibition of export of FGF-2 [8]: inhibit | IC50 [8]: ~100 nM | inhibition of IL-1α export [9]: inhibted | effect on secretion of hCG-α [10]: does not affect secretion of hCG-α | sensitivity of N protein export [11]: ouabain-resistant | Effect of Ouabain on Export [12]: decrease | FGF-2 in Cells, 7 hr (+) Ouabain [12]: 79% | FGF-2 in Media, 7 hr (+) Ouabain [12]: 21%

C[C@H]1CCC/C=C/[C@@H]2C[C@H](O)C[C@H]2[C@H](O)/C=C/C(=O)O1 [Brefeldin A]
effect on FGF-2 export [13]: no substantial effect | sensitivity of hCG-α secretion [14]: brefeldin sensitive

C[C@H]1O[C@@H](O[C@H]2[C@@H](O)C[C@H](O[C@H]3[C@@H](O)C[C@H](O[C@H]4CC[C@@]5(C)[C@H](CC[C@@H]6[C@@H]5C[C@@H](O)[C@]5(C)[C@@H](C7=CC(=O)OC7)CC[C@]65O)C4)O[C@@H]3C)O[C@@H]2C)C[C@H](O)[C@@H]1O [digoxin]
inhibition of export of FGF-2 [8]: inhibit | IC50 [8]: ~5000 nM
